Measurements from patent US12503436B2, “Compounds and compositions for treating conditions associated with STING activity” (NOVARTIS PHARMA AG, priority 2021, dated 2025).

target: STING (Homo sapiens, UniProt Q86WV6, G230A/H232R/R293Q/R71H); experiment: STING reporter assay in THP1-Dual KO-IFNAR2 cells (2′3′cGAMP stimulation, luciferase reporter); format: cell-based; settings: 15 μM 2′3′cGAMP stimulation, 24 h, read-out: Pharmaron, THP1_IFNAR2 STING 24 h Luci Normalized: GeoMean EC50
Method: STING pathway activation by the compounds described herein was measured using THP1-Dual™ cells (KO-IFNAR2).
THP1-Dual™ KO-IFNAR2 Cells (obtained from InvivoGen) were maintained in RPMI, 10% FCS, 5 ml P/S, 2 mM L-glut, 10 mM Hepes, and 1 mM sodium pyruvate. Compounds were spotted in empty 384 well tissue culture plates (Greiner 781182) by Echo for a final concentration of 0.0017-100 μM. Cells were plated into the TC plates at 40 μL per well, 2×10E6 cells/mL. For activation with STING ligand, 2′3′cGAMP (MW 718.38, obtained from Invivogen), was prepared in Optimem media.
The following solutions were prepared for each 1×384 plate: • Solution A: 2 mL Optimem with one of the following stimuli: • 60 μL of 10 mM 2′3′cGAMP→150 μM stock • Solution B: 2 mL Optimem with 60 μL Lipofectamine 2000→Incubate 5 min at RT
2 mL of solution A and 2 ml Solution B was mixed and incubated for 20 min at room temperature (RT). 20 μL of transfection solution (A+B) was added on top of the plated cells, with a final 2′3′cGAMP concentration of 15 μM. The plates were then centrifuged immediately at 340 g for 1 minute, after which they were incubated at 37° C., 5% CO2, >98% humidity for 24 h. Luciferase reporter activity was then measured. EC50 values were calculated by using standard methods known in the art.
Luciferase reporter assay: 10 μL of supernatant from the assay was transferred to white 384-plate with flat bottom and squared wells. One pouch of QUANTI-Luc™ Plus was dissolved in 25 mL of water. 100 μL of QLC Stabilizer per 25 mL of QUANTI-Luc™ Plus solution was added. 50 μL of QUANTI-Luc™ Plus/QLC solution per well was then added. Luminescence was measured on a Platereader (e.g., Spectramax I3X (Molecular Devices GF3637001)).
Luciferase reporter activity was then measured. EC50 values were calculated by using standard methods known in the art.

STING, sequence (Q86WV6 whole entry R71H/G230A/H232R/R293Q): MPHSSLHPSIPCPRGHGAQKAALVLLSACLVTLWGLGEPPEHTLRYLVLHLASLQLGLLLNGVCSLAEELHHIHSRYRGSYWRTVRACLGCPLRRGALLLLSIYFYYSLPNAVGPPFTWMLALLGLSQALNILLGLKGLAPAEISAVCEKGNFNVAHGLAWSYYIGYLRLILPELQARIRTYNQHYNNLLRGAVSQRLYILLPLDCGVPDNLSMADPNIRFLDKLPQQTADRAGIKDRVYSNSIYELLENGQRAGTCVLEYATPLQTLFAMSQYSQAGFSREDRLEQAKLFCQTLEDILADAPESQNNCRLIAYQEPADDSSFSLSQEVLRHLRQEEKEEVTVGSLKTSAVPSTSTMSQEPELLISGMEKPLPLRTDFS

Molecule | EC50 [nM]
N#CC1(C(=O)Nc2c[nH]c3ccc(O[C@H]4C[C@@H](c5ccc(C(F)(F)F)cc5)C4)cc23)CC1 [Compound 362, 1-cyano-N-(5-(cis-3-(4-(trifluoromethyl)phenyl)cyclobutoxy)-1H-indol-3-yl)cyclopropane-1-carboxamide] | 200 to 1000
CC(C)(C)OC(=O)N1CC(C(=O)Nc2c[nH]c3ccc(O[C@H]4C[C@H](c5ccc(C(F)(F)F)cc5)C4)cc23)C1 [Compound 466, tert-butyl 3-((5-(trans-3-(4-(trifluoromethyl)phenyl)cyclobutoxy)-1H-indol-3-yl)carbamoyl)azetidine-1-carboxylate] | 200 to 1000
O=C(Nc1c[nH]c2ccc(CC(O)Cc3ccc(C(F)(F)F)cc3)cc12)C1CC1 (centres unmarked) [Compound 240, N-(5-(2-hydroxy-3-(4-(trifluoromethyl)phenyl)propyl)-1H-indol-3-yl)cyclopropanecarboxamide] | 200 to 1000
CC(C)(C)C(=O)Nc1c[nH]c2ccc(OCc3ccc(C(F)(F)F)cc3)cc12 [Compound 316, N-(5-((4-(trifluoromethyl)benzyl)oxy)-1H-indol-3-yl)pivalamide] | 200 to 1000
O=C(Nc1c[nH]c2ccc(O[C@H]3C[C@@H](c4ccc(C(F)(F)F)cc4)C3)cc12)C1CC(O)C1 (stereo partly drawn) [Compound 338, 3-hydroxy-N-(5-(cis-3-(4-(trifluoromethyl)phenyl)cyclobutoxy)-1H-indol-3-yl)cyclobutane-1-carboxamide] | 200 to 1000
CC[C@@H](O)C(=O)Nc1c[nH]c2ccc(O[C@H]3C[C@H](c4ccc(C(F)(F)F)cc4)C3)cc12 [Compound 429, (R)-2-hydroxy-N-(5-(trans-3-(4-(trifluoromethyl)phenyl)cyclobutoxy)-1H-indol-3-yl)butanamide] | 200 to 1000
CC(=O)Nc1c[nH]c2ccc(C(O)CCc3ccc(C(F)(F)F)cc3)cc12 (centres unmarked) [Compound 282, N-(5-(1-hydroxy-3-(4-(trifluoromethyl)phenyl)propyl)-1H-indol-3-yl)acetamide] | 1000 to 5000
CC1(C(=O)Nc2c[nH]c3ccc(OCc4ccc(C(F)(F)F)cc4)cc23)CN(CC(F)F)C1 [Compound 421, 1-(2,2-difluoroethyl)-3-methyl-N-(5-((4-(trifluoromethyl)benzyl)oxy)-1H-indol-3-yl)azetidine-3-carboxamide] | 200 to 1000
CC1(F)CC(C(=O)Nc2c[nH]c3ccc(OCCc4ccc(C(F)(F)F)cc4)cc23)C1 (centres unmarked) [Compound 380, 3-fluoro-3-methyl-N-(5-(4-(trifluoromethyl)phenethoxy)-1H-indol-3-yl)cyclobutane-1-carboxamide] | 40 to 200
O=C(Nc1c[nH]c2ccc(CCOc3ccc(C(F)(F)F)cc3)cc12)C1CC(F)(F)C1 [Compound 388, 3,3-difluoro-N-(5-(2-(4-(trifluoromethyl)phenoxy)ethyl)-1H-indol-3-yl)cyclobutane-1-carboxamide] | 200 to 1000
CC(=O)Nc1c[nH]c2ncc(OCCc3ccc(C(F)(F)F)cc3)cc12 [Compound 267, N-(5-(4-(trifluoromethyl)phenethoxy)-1H-pyrrolo[2,3-b]pyridin-3-yl)acetamide] | 1000 to 5000
2,2-dimethyl-N-(5-(2-((3aR,5r,6aS)-2-(2,2,2-trifluoroethyl)octahydrocyclopenta[c]pyrrol-5-yl)ethoxy)-1H-indol-3-yl)cyclopropane-1-carboxamide [Compound 368] | 200 to 1000
CC1(C(=O)Nc2c[nH]c3ccc(O[C@H]4C[C@@H](c5ccc(C(F)(F)F)cc5)C4)cc23)CCOCC1 [Compound 363, 4-methyl-N-(5-(cis-3-(4-(trifluoromethyl)phenyl)cyclobutoxy)-1H-indol-3-yl)tetrahydro-2H-pyran-4-carboxamide] | 200 to 1000
O=C(COCC(F)(F)F)Nc1c[nH]c2ccc(OCC[C@@H]3C[C@@H]4CN(CC(F)(F)F)C[C@@H]4C3)cc12 [Compound 434, 2-(2,2,2-trifluoroethoxy)-N-(5-(2-((3aR,5r,6aS)-2-(2,2,2-trifluoroethyl)octahydrocyclopenta[c]pyrrol-5-yl)ethoxy)-1H-indol-3-yl)acetamide] | 40 to 200
